According to patent publication US20240158446A1, “CYCLIC COMPOUND HAVING SELECTIVE INHIBITORY ACTION ON KRAS OVER HRAS AND NRAS” (CHUGAI SEIYAKU KABUSHIKI KAISHA, priority 2021, published 2024):
pKd: −log10 of the molar value.

Assays:
[1] = biological target: GDP-bound KRAS wild-type protein (Homo sapiens, UniProt P01116); experiment: Binding to KRAS by surface plasmon resonance (SPR), Single Cycle Kinetics; details: SPR, Single Cycle Kinetics, GDP-bound KRAS wild-type protein; read-out: KRAS KD
[2] = biological target: GDP-bound NRAS wild-type protein (Homo sapiens, UniProt P01111); experiment: Binding to NRAS by surface plasmon resonance (SPR), Single Cycle Kinetics; details: ratio of KD for GDP-bound NRAS wild-type protein to KD for KRAS, SPR
[3] = biological target: GDP-bound HRAS wild-type protein (Homo sapiens, UniProt P01112); experiment: Binding to HRAS by surface plasmon resonance (SPR), Single Cycle Kinetics; details: ratio of KD for GDP-bound HRAS wild-type protein to KD for KRAS, SPR
[4] = test system: human lung cancer strain NCI-H441; experiment: cells; details: NCI-H441, 96 h, read-out: NCI-H441 IC50 (nM), NCI-H441 cell proliferation, 4 days, CellTiter-Glo;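 note: cell proliferation inhibition after four days measured by CellTiter-Glo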

Chain of GDP-bound KRAS wild-type protein (P01116 whole entry): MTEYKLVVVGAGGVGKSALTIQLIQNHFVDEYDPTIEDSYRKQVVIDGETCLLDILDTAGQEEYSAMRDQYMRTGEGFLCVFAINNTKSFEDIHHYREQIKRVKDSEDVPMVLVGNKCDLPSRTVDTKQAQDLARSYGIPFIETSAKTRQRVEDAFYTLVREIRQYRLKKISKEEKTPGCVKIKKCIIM
Chain of GDP-bound HRAS wild-type protein (P01112 whole entry): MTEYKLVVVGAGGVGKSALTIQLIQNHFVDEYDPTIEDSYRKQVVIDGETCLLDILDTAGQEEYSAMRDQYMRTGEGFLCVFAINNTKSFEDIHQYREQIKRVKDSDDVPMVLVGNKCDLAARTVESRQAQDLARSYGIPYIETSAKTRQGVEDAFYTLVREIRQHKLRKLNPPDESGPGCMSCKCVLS
Chain of GDP-bound NRAS wild-type protein (P01111 whole entry): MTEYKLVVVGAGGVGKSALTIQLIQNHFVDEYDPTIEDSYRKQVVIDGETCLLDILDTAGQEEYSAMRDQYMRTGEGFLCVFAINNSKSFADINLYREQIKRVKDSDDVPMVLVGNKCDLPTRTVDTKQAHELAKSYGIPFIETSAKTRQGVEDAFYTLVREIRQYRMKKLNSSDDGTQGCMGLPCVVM

SMILES	pKd [1]	NRAS/KRAS (KD ratio) [2]	HRAS/KRAS (KD ratio) [3]	IC50 [4] [nM]
CCO[C@@H]1C[C@H]2C(=O)NC3(CCC3)C(=O)N(C)[C@@H](C(CC)CC)C(=O)N(C)[C@H](CC)CC(=O)N(C)[C@@H](CC)C(=O)N[C@@H]([C@@H](C)CC)C(=O)N(C)CC(=O)N(C)[C@H]3C/C=C\CCN(C3=O)[C@@H](Cc3ccc(C(F)(F)F)cc3)C(=O)N(C)CC(=O)N[C@@H](CCc3cc(F)c(C(F)(F)F)c(F)c3)C(=O)N2C1 [PP1624]	8.96	A (a compound having 10 or more and less than 20 is denoted as A)	A (a compound having 10 or more and less than 20 is denoted as A)	55.8
CCO[C@@H]1C[C@H]2C(=O)NC3(CCC3)C(=O)N(C)[C@@H](C3CCCC3)C(=O)N(C)[C@H](CC)CC(=O)N(C)[C@@H](CC)C(=O)N[C@@H]([C@@H](C)CC)C(=O)N(C)CC(=O)N(C)[C@H]3C/C=C\CCN(C3=O)[C@@H](Cc3ccc(C(F)(F)F)cc3)C(=O)N(C)CC(=O)N[C@@H](CCc3cc(F)c(C(F)(F)F)c(F)c3)C(=O)N2C1 [PP1625]	9.54	B (a compound having 3 or more and less than 10 is denoted as B)	B (a compound having 3 or more and less than 10 is denoted as B)	20.2
CCO[C@@H]1C[C@H]2C(=O)NC3(CC(F)(F)C3)C(=O)N(C)[C@@H](C(CC)CC)C(=O)N(C)[C@H](CC)CC(=O)N(C)[C@@H](CC)C(=O)N[C@@H]([C@@H](C)CC)C(=O)N(C)CC(=O)N(C)[C@H]3C/C=C\CCN(C3=O)[C@@H](Cc3ccc(C(F)(F)F)cc3)C(=O)N(C)CC(=O)N[C@@H](CCc3cc(F)c(C(F)(F)F)c(F)c3)C(=O)N2C1 [PP1626]	8.52	A (a compound having 10 or more and less than 20 is denoted as A)	A (a compound having 10 or more and less than 20 is denoted as A)	108
CCO[C@@H]1C[C@H]2C(=O)NC3(CC(F)(F)C3)C(=O)N(C)[C@@H](C3CCCC3)C(=O)N(C)[C@H](CC)CC(=O)N(C)[C@@H](CC)C(=O)N[C@@H]([C@@H](C)CC)C(=O)N(C)CC(=O)N(C)[C@H]3C/C=C\CCN(C3=O)[C@@H](Cc3ccc(C(F)(F)F)cc3)C(=O)N(C)CC(=O)N[C@@H](CCc3cc(F)c(C(F)(F)F)c(F)c3)C(=O)N2C1 [PP1627]	9.60	A (a compound having 10 or more and less than 20 is denoted as A)	A (a compound having 10 or more and less than 20 is denoted as A)	22.9
CCO[C@@H]1C[C@H]2C(=O)NC3(CC(C)(C)C3)C(=O)N(C)[C@@H](C(CC)CC)C(=O)N(C)[C@H](CC)CC(=O)N(C)[C@@H](CC3CC3)C(=O)N[C@@H]([C@@H](C)CC)C(=O)N(C)CC(=O)N(C)[C@H]3C/C=C\CCN(C3=O)[C@@H](Cc3ccc(C(F)(F)F)cc3)C(=O)N(C)CC(=O)N[C@@H](CCc3cc(F)c(C(F)(F)F)c(F)c3)C(=O)N2C1 [PP1628]	8.60	A (a compound having 10 or more and less than 20 is denoted as A)	A (a compound having 10 or more and less than 20 is denoted as A)	150
CCO[C@@H]1C[C@H]2C(=O)NC3(CC(C)(C)C3)C(=O)N(C)[C@@H](C3CCCC3)C(=O)N(C)[C@H](CC)CC(=O)N(C)[C@@H](CC3CC3)C(=O)N[C@@H]([C@@H](C)CC)C(=O)N(C)CC(=O)N(C)[C@H]3C/C=C\CCN(C3=O)[C@@H](Cc3ccc(C(F)(F)F)cc3)C(=O)N(C)CC(=O)N[C@@H](CCc3cc(F)c(C(F)(F)F)c(F)c3)C(=O)N2C1 [PP1629]	9.44	B (a compound having 3 or more and less than 10 is denoted as B)	B (a compound having 3 or more and less than 10 is denoted as B)	20.7
CCO[C@@H]1C[C@H]2C(=O)NC3(CCC3)C(=O)N(C)[C@@H](C(CC)CC)C(=O)N(C)[C@H](CC)CC(=O)N(C)[C@@H](CC3CC3)C(=O)N[C@@H]([C@@H](C)CC)C(=O)N(C)CC(=O)N(C)[C@H]3C/C=C\CCN(C3=O)[C@@H](Cc3ccc(C(F)(F)F)cc3)C(=O)N(C)CC(=O)N[C@@H](CCc3cc(F)c(C(F)(F)F)c(F)c3)C(=O)N2C1 [PP1630]	8.74	A (a compound having 10 or more and less than 20 is denoted as A)	A (a compound having 10 or more and less than 20 is denoted as A)	144
CCO[C@@H]1C[C@H]2C(=O)NC3(CC(F)(F)C3)C(=O)N(C)[C@@H](C(CC)CC)C(=O)N(C)[C@H](CC)CC(=O)N(C)[C@@H](CC3CC3)C(=O)N[C@@H]([C@@H](C)CC)C(=O)N(C)CC(=O)N(C)[C@H]3C/C=C\CCN(C3=O)[C@@H](Cc3ccc(C(F)(F)F)cc3)C(=O)N(C)CC(=O)N[C@@H](CCc3cc(F)c(C(F)(F)F)c(F)c3)C(=O)N2C1 [PP1632]	8.43	A (a compound having 10 or more and less than 20 is denoted as A)	A (a compound having 10 or more and less than 20 is denoted as A)	116
CCO[C@@H]1C[C@H]2C(=O)NC3(CC(F)(F)C3)C(=O)N(C)[C@@H](C3CCCC3)C(=O)N(C)[C@H](CC)CC(=O)N(C)[C@@H](CC3CC3)C(=O)N[C@@H]([C@@H](C)CC)C(=O)N(C)CC(=O)N(C)[C@H]3C/C=C\CCN(C3=O)[C@@H](Cc3ccc(C(F)(F)F)cc3)C(=O)N(C)CC(=O)N[C@@H](CCc3cc(F)c(C(F)(F)F)c(F)c3)C(=O)N2C1 [PP1633]	9.22	A (a compound having 10 or more and less than 20 is denoted as A)	B (a compound having 3 or more and less than 10 is denoted as B)	15.1
CCO[C@@H]1C[C@H]2C(=O)NC3(CC(C)(C)C3)C(=O)N(C)[C@@H](C(CC)CC)C(=O)N(C)[C@H](C3CCC3)CC(=O)N(C)[C@@H](CC3CC3)C(=O)N[C@@H]([C@@H](C)CC)C(=O)N(C)CC(=O)N(C)[C@H]3C/C=C\CCN(C3=O)[C@@H](Cc3ccc(C(F)(F)F)cc3)C(=O)N(C)CC(=O)N[C@@H](CCc3cc(F)c(C(F)(F)F)c(F)c3)C(=O)N2C1 [PP1634]	8.29	A (a compound having 10 or more and less than 20 is denoted as A)	A (a compound having 10 or more and less than 20 is denoted as A)	144
CCO[C@@H]1C[C@H]2C(=O)NC3(CC(C)(C)C3)C(=O)N(C)[C@@H](C3CCCC3)C(=O)N(C)[C@H](C3CCC3)CC(=O)N(C)[C@@H](CC3CC3)C(=O)N[C@@H]([C@@H](C)CC)C(=O)N(C)CC(=O)N(C)[C@H]3C/C=C\CCN(C3=O)[C@@H](Cc3ccc(C(F)(F)F)cc3)C(=O)N(C)CC(=O)N[C@@H](CCc3cc(F)c(C(F)(F)F)c(F)c3)C(=O)N2C1 [PP1635]	9.19	B (a compound having 3 or more and less than 10 is denoted as B)	A (a compound having 10 or more and less than 20 is denoted as A)	36.3
CCO[C@@H]1C[C@H]2C(=O)NC3(CCC3)C(=O)N(C)[C@@H](C3CCCC3)C(=O)N(C)[C@H](C3CCC3)CC(=O)N(C)[C@@H](CC3CC3)C(=O)N[C@@H]([C@@H](C)CC)C(=O)N(C)CC(=O)N(C)[C@H]3C/C=C\CCN(C3=O)[C@@H](Cc3ccc(C(F)(F)F)cc3)C(=O)N(C)CC(=O)N[C@@H](CCc3cc(F)c(C(F)(F)F)c(F)c3)C(=O)N2C1 [PP1637]	9.49	A (a compound having 10 or more and less than 20 is denoted as A)	A (a compound having 10 or more and less than 20 is denoted as A)	32.5
